Laboratory results reported in PMC10895668, “Lead Optimization of the 5-Phenylpyrazolopyrimidinone NPD-2975 toward Compounds with Improved Antitrypanosomal Efficacy” (Journal of Medicinal Chemistry, 2024).
Where a name gives a salt, the structure may show the parent alone. Read-outs that look alike come from different tables or passages of the source.

Legend:
[1] = test system: T. b. brucei; conditions: 10 mg/kg IP s.i.d. for 5 days, positive control, n = 3
Method: (§1) The antiparasitic assays were carried out exactly as described in Blaazer et al.([39]) Metabolic stability, pharmacokinetics, acute mouse infection model results were collected as described previously.[21] All animal experiments were conducted in compliance with institutional guidelines and following approval by the Ethical Committee of the University of Antwerp, Belgium [UA-ECD 2014–96]. Female Swiss mice (15–20 g), were purchased from Janvier (Le Genest Saint Isle, France). […] Animals were treated PO b.i.d. for 5 days at 25 and 50 mg/kg 31c. For the SL-RNA qPCR experiments blood was collected sublingually and subjected to erythrocyte lysis before extracting RNA with the QIAamp RNA Blood Mini kit (Qiagen). […] Small pieces of fat, brain, and spleen tissue were excised and immediately transferred to RNA later (Qiagen) and incubated overnight at 4 °C. RNA extraction was performed as instructed in the RNeasy Mini Plus Kit manual (Qiagen). The one-step SensiFAST SYBR Hi-Rox PCR kit (Bioline USA Inc., via Gentaur Belgium BVBA, Kampenhout, Belgium) was used for the PCR with the following forward and reverse primers, respectively 5′-[…]-3′ and 5′-[…]-3′. An initial activation step of 10 min at 45 °C and 10 min at 95 °C was used, followed by the amplification step for 40 cycles (15 s at 95 °C, 15 s 50 °C and 15 s at 60 °C). At last, the melting curves were generated with an increment of 0.3 °C (15 s at 95 °C 1 min at 45 °C and 15 s at 95 °C). The PCR was run on the Step One Plus real-time PCR system (Applied Biosystems, California, USA). An additional qPCR was performed with the mouse housekeeping gene Eef2 to confirm successful RNA extraction.
Mice were allocated to groups of three and were infected by IP injection of 10^4T. brucei Squib 427 trypomastigotes. […] Suramin was included as a reference for T. brucei and injected IP s.i.d. for 5 days at 10 mg/kg. A PEG400 vehicle control group was also included. […] The first treatment was given 30 min prior to the artificial infection. Drug efficacy was evaluated by microscopic determination of the parasitemia in a blood drop collected from the tail vein at several time points until 63 days postinfection (dpi). […] An SL-RNA qPCR assay was performed in all surviving animals to confirm parasitological cure. For the SL-RNA qPCR, peripheral blood was subjected to erythrocyte lysis before extracting RNA with the QIAamp RNA Blood Mini kit (Qiagen). […] Small pieces of fat, brain, and spleen tissues were excised and immediately transferred to RNA later (Qiagen) and incubated overnight at 4 °C. RNA extraction was performed as instructed in the RNeasy Mini Plus Kit manual (Qiagen). […]

[2] = test system: MRC-5 cells; assay: MRC-5SV2 cytotoxicity assay; type: cell-based; conditions: Homo sapiens, MRC5, 72 h, read-out: pIC50 MRC-5 (converted)
Method: The synthesized analogues were tested against T. b. brucei, and inhibition of MRC-5 (human lung fibroblasts MRC-5SV40) cell proliferation was included as cytotoxicity control. […] Analogue 17 with an amino group instead of the carbonyl group was prepared to improve solubility for further modification. […] In vitro experiments were carried out with the bloodstream form of the T. b. brucei Squib strain (suramin-sensitive). […] All cultures and assays were conducted at 37 °C under an atmosphere of 5% CO2. […] Cell growth is compared to untreated-control wells (100% cell growth) and medium-control wells (0% cell growth). […] After 4 h at 37 °C, fluorescence is measured (λex 550 nm, λem 590 nm). The results are expressed as % reduction in cell growth/viability compared to control wells and an IC50 and an IC90 (50 and 90% inhibitory concentrations) are determined.

[3] = test system: T. b. brucei; assay: Trypanosoma susceptibility assay (resazurin viability); type: cell-based; conditions: for decrease of antitrypanosomal activity compared with 2: T. b. brucei, versus compound 2; for potency lower compared to 31a: T. brucei, versus compound 31a; for antitrypanosomal activity (in words): T. brucei in vitro
Method: as §1
In vitro experiments were carried out with the bloodstream form of the T. b. brucei Squib strain (suramin-sensitive). Parasites were routinely cultured in T25 culture flasks containing 10 mL of HMI-9 medium (Invitrogen) supplemented with 10% heat-inactivated fetal bovine serum (Life Technologies) and 2.5 μg/mL Geneticin (Life Technologies). MRC-5SV2 cells were cultured in MEM + Earl’s salts-medium, supplemented with 2 mM L-glutamine, 16.5 mM NaHCO3, and 5% inactivated fetal calf serum. All cultures and assays were conducted at 37 °C under an atmosphere of 5% CO2.
Parasites were counted in a KOVA counting chamber and diluted to 1.5 × 10^4 parasites/well of a 96-well plate (200 μL total volume), upon which the prediluted test compounds were added. Drug exposure covered a 72 h period without renewal of the culture medium. After 3 days of incubation, parasite growth was assessed fluorimetrically after addition of 50 μL of resazurin per well. After 6 h (T. b. rhodesiense) or 24 h (T. b. brucei) at 37 °C, fluorescence is measured (λex 550 nm, λem 590 nm). Parasite viability was assessed using the resazurin viability assay, and drug activity was calculated as percentage viability reduction compared to nontreated controls.

[4] = test system: MRC-5 cells; conditions: Figure 1; previously reported series ref 21; cited from earlier work
[5] = cytotoxicity, 3 days incubation, mean ± SD, n ≥ 2
[6] = T. b. brucei Squib bloodstream form, 72 h exposure, mean ± SD, n ≥ 2
[7] = Trypanosoma brucei, 72 h, T. b. brucei Squib bloodstream form, 72 h exposure, mean ± SD, n ≥ 2, read-out: pIC50 T. brucei (converted)

| Compound | IC50 [2, 5] [µM] | IC50 [3, 7] [nM] | also measured |
| --- | --- | --- | --- |
| Cc1ccc(C(=O)Nc2ccc(S(=O)(=O)O)c3cc(S(=O)(=O)O)cc(S(=O)(=O)O)c23)cc1NC(=O)c1cccc(NC(=O)Nc2cccc(C(=O)Nc3cc(C(=O)Nc4ccc(S(=O)(=O)O)c5cc(S(=O)(=O)O)cc(S(=O)(=O)O)c45)ccc3C)c2)c1 [suramin, reference compound] | – | – | survival [1]: survived throughout the 60 days postinfection follow-up period without relapse |
| CC(C)c1nn(C)c2c(=O)[nH]c(-c3ccc(F)cc3)nc12 [compound 11, 5-(4-Fluorophenyl)-3-isopropyl-1-methyl-1,6-dihydro-7H-pyrazolo[4,3-d]pyrimidin-7-one] | > 63.1 | < 100 | pIC50 T. brucei [3, 6]: 7.1 ± 0.1 |
| CC(C)c1nn(CCO)c2c(=O)[nH]c(-c3ccc(F)cc3)nc12 [compound 22, 5-(4-Fluorophenyl)-1-(2-hydroxyethyl)-3-isopropyl-1,6-dihydro-7H-pyrazolo[4,3-d]pyrimidin-7-one] | > 63.1 | 631 | IC50 ([3]; Trypanosoma brucei, read-out: IC50 against T. brucei): 800 nM |
| CC(C)c1nn(C(C)C)c2c(=O)[nH]c(-c3ccc(F)cc3)nc12 [21c, 5-(4-Fluorophenyl)-1,3-diisopropyl-1,6-dihydro-7H-pyrazolo[4,3-d]pyrimidin-7-one] | > 63.1 | 6310 | decrease of antitrypanosomal activity compared with 2 [3]: ~100 fold |
| O=c1[nH]c(-c2ccc(F)cc2)nc2c(-c3ccccc3)n[nH]c12 [compound 35, 5-(4-Fluorophenyl)-3-phenyl-1,6-dihydro-7H-pyrazolo[4,3-d]pyrimidin-7-one] | > 63.1 | < 100 | pIC50 T. brucei [3, 6]: 7.3 ± 0.1; potency lower compared to 31a [3]: 4 fold |
| O=c1[nH]c(-c2ccc(F)cc2)nc2c(C3CCCCC3)n[nH]c12 [31b, 3-Cyclohexyl-5-(4-fluorophenyl)-1,6-dihydro-7H-pyrazolo[4,3-d]pyrimidin-7-one] | > 63.1 | – | potency lower compared to 31a [3]: 4 fold |
| CC(C)c1[nH]nc2c(=O)n(C)c(-c3ccc(F)cc3)nc12 [compound 7, 5-(4-Fluorophenyl)-3-isopropyl-6-methyl-2,6-dihydro-7H-pyrazolo[4,3-d]pyrimidin-7-one] | > 63.1 | > 10000 | decrease of antitrypanosomal activity compared with 2 [3]: > 100 fold |
| CCn1nc(C(C)C)c2nc(-c3ccc(F)cc3)[nH]c(=O)c21 [21a, 1-Ethyl-5-(4-fluorophenyl)-3-isopropyl-1,6-dihydro-7H-pyrazolo[4,3-d]pyrimidin-7-one] | > 63.1 | 251 | – |
| CCc1n[nH]c2c(=O)[nH]c(-c3ccc(F)cc3)nc12 [31d, 3-Ethyl-5-(4-fluorophenyl)-1,6-dihydro-7H-pyrazolo[4,3-d]pyrimidin-7-one] | > 63.1 | 398 | – |
| CCCn1nc(C(C)C)c2nc(-c3ccc(F)cc3)[nH]c(=O)c21 [21b, 5-(4-Fluorophenyl)-3-isopropyl-1-propyl-1,6-dihydro-7H-pyrazolo[4,3-d]pyrimidin-7-one] | > 63.1 | 158 | – |
| CC(C)c1nn(CCC(N)=O)c2c(=O)[nH]c(-c3ccc(F)cc3)nc12 [21f, 3-(5-(4-Fluorophenyl)-3-isopropyl-7-oxo-6,7-dihydro-1H-pyrazolo[4,3-d]pyrimidin-1-yl)propanamide] | > 63.1 | > 63100 | antitrypanosomal activity (in words) [3]: no antitrypanosomal activity |
| 5-(4-Fluorophenyl)-3-isopropyl-1-(4-methoxyphenethyl)-1,6-dihydro-7H-pyrazolo[4,3-d]pyrimidin-7-one [21e] | – | – | IC50 ([3]; read-out: IC50 against T. brucei): 3200 nM |
| Cc1n[nH]c2c(=O)[nH]c(-c3ccc(F)cc3)nc12 [31e, 5-(4-Fluorophenyl)-3-methyl-1,6-dihydro-7H-pyrazolo[4,3-d]pyrimidin-7-one] | > 63.1 | 25100 | – |
| CC(C)c1n[nH]c2c(=N)[nH]c(-c3ccc(F)cc3)nc12 [compound 17, 5-(4-Fluorophenyl)-3-isopropyl-1,6-dihydro-7H-pyrazolo[4,3-d]pyrimidin-7-imine] | 25.1 | > 10000 | decrease of antitrypanosomal activity compared with 2 [3]: > 100 fold |
| COCCn1nc(C(C)C)c2nc(-c3ccc(F)cc3)[nH]c(=O)c21 [21d, 5-(4-Fluorophenyl)-3-isopropyl-1-(2-methoxyethyl)-1,6-dihydro-7H-pyrazolo[4,3-d]pyrimidin-7-one] | > 63.1 | > 63100 | antitrypanosomal activity (in words) [3]: no antitrypanosomal activity at all |
| O=c1[nH]c(-c2ccc(F)cc2)nc2cn[nH]c12 [31f, 5-(4-Fluorophenyl)-1,6-dihydro-7H-pyrazolo[4,3-d]pyrimidin-7-one Formate] | – | – | IC50 [2]: > 63.1 µM; IC50 ([3]; Trypanosoma brucei, 72 h, read-out: pIC50 T. brucei (converted)): > 63100 nM |
| CC(C)c1c2nc(-c3ccc(F)cc3)[nH]c(=O)c2nn1C [compound 15, 5-(4-Fluorophenyl)-3-isopropyl-2-methyl-2,6-dihydro-7H-pyrazolo[4,3-d]pyrimidin-7-one] | > 63.1 | 1580 | decrease of antitrypanosomal activity compared with 2 [3]: 20 fold |
| CC(C)c1n[nH]c2c(=O)[nH]c(Cc3ccccc3)nc12 [compound 1, reference compound] | – | – | MRC-5 pIC50 [4]: < 4.2 |
